# Assay results published in PMC8620390, “New Multi-Targeted Antiproliferative Agents: Design and Synthesis of IC261-Based Oxindoles as Potential Tubulin, CK1 and EGFR Inhibitors” (Pharmaceuticals, 2021).
# Where two headings read alike, the source gives them in different places. Marks after values point to notes of the source that are not given here.
# Assays:
# MCF-7 = assay: Two-dose antiproliferative screening, SRB assay, MCF-7; format: cell-based; details: triplicates; for Growth Inhibition (%) MCF-7 1 μM Average: 72 h; for inhibition at 1 µM / inhibition at 10 µM: Homo sapiens, MCF7, 72 h; for inhibition at 1 µM: read-out: Growth Inhibition (%) MCF-7 1 μM Average; for inhibition at 10 µM: read-out: Growth Inhibition (%) MCF-7 10 μM Average
# Method: MCF-7(breast adenocarcinoma), PC-3 (prostate cancer) and COLO-205 (colorectal cancer) were obtained from Nawah Scientific inc., (Mokatam, Cairo, Egypt). Cells were maintained in Dulbecco’s Modified Eagle’s media (DMEM media) supplemented with […] of streptomycin, 100 units/mL of penicillin and 10% of heat-inactivated fetal bovine serum in humidified, 5% (v/v) CO2 atmosphere at 37 °C.
# (§1) Cell viability was assessed by the sulforhodamine B (SRB) assay. Aliquots of cell suspension (5 × 10^3 cells, 100 μL) were transferred into 96 well plates and incubated in complete media for 24 h. Cells were treated with another aliquot media (100 μL) containing compounds 3a–f, 4a–f, 6a–f, 7a–f, 9a–b at concentrations of 1 and 10 μM). After 72 h of drug exposure, cells were fixed by replacing media with trichloroacetic acid (TCA, 10%, 150 μL) and incubated at 4 °C for 1 h. The TCA solution was removed, and the cells were washed five times with distilled water. Aliquots of SRB solution (0.4%w/v, 70 μL) were added and incubated in a dark place at room temperature for 10 min. Plates were washed three times with 1% acetic acid and allowed to air dry overnight. Then, a solution of TRIS base and TRIS HCl (TRIS buffer, 10 mM, 150 μL) was added to dissolve protein bound SRB stain. The absorbance was measured at 540 nm using BMGLABTECH®–FLUOstar omega micro-plate reader (Ortenberg, Germany).
# COLO-205 = assay: IC50 against COLO-205, SRB assay; format: cell-based; details: Homo sapiens, 0.001–100 μM
# Method: as §1
# The same procedures used to screen two-dose anticancer activities were applied in determining IC50 values against COLO-205 using SRB assay. Cells were maintained at Roswell Park Memorial Institute media (RPMI media). The test was performed using 0.001–100 μM of compounds 4a (IC261), 4b, 4d, 4e, 6e and 6f. IC50 values were calculated using the equation for Boltzman sigmoidal concentration–response curve using the nonlinear regression fitting models by GraphPad, Prism version 5 (GraphPad Software Inc., La Jolla, CA, USA).
# A549 cell line = assay: MTT assay for A549 cell line; format: cell-based
# Method: MTT assay for A549 cell line. Cell Line cells were obtained from American Type Culture Collection. Cells were cultured using DMEM (Invitrogen/Life Technologies, Carlsbad, CA, USA) supplemented with 10% FBS (Hyclone, Logan, UT, USA), 10 μg/mL of insulin (Sigma, St. Louis, MI, USA), and 1% penicillin-streptomycin. All the other chemicals and reagents were from Sigma (St. Louis, MI, USA) or Invitrogen (Carlsbad, CA, USA). Cells were plated (cells density 1.2–1.8 × 10,000 cells/well) in a volume of 100 µL complete growth medium + 100 μL of the tested compound per well in a 96-well plate for 24 h before the application of MTT assay protocol as reported, Supplementary Materials.
# Cell Line cells were obtained from American Type Culture Collection , cells were cultured using DMEM (Invitrogen/Life Technologies) supplemented with 10% FBS (Hyclone,), 10 ug/ml of insulin (Sigma), and 1% penicillin-streptomycin. All of the other chemicals and reagents were from Sigma, or Invitrogen.
# Plate cells (cells density 1.2 – 1.8 × 10,000 cells/well) in a volume of 100µl complete growth medium + 100 ul of the tested compound per well in a 96-well plate for 24 hours before the MTT assay .
# 1. Remove culture medium to a centrifuge tube.
# 2. Briefly rinse the cell layer with 0.25% (w/v) Trypsin 0.53 mM EDTA solution to remove all traces of serum which contains Trypsin inhibitor.
# 3. Add 2.0 to 3.0 ml of Trypsin EDTA solution to flask and observe cells under an inverted microscope until cell layer is dispersed (usually within 5 to 15 minutes). […]
# waiting for the cells to detach. Cells that are difficult to detach may be placed at 37°C […]
# 4. Add 6.0 to 8.0 mL of complete growth medium and aspirate cells by gently
# 5. […]
# 6. Spectrophotometrically measure absorbance at a wavelength of 570 nm. Measure the background absorbance of multiwell plates at 690 nm and subtract from the […] measurement. Tests performed in multiwell plates can be read using the appropriate type of plate reader or the contents of individual wells may be transferred to appropriate size cuvets for spectrophotometric measurement.
# CK1 = assay: Casein Kinase 1 (CK1) 33P-ATP assay; format: biochemical
# Method: The active CK1, kinase assay buffer, substrate solution and kinase dilution buffer were thawed on ice (^33P-ATP assay Cocktail). In a precooled microcentrifuge tube, 10 μL of kinase solution, 5 μL of substrate solution and 5 μL of cold water (4 °C) were added, then a blank control was set up. Each reaction was initiated by adding 5 μL of ^33P-ATP assay cocktail then incubated for 15 min in a water bath (30 °C), then 20 μL of the reaction mixture were spotted onto an individually precut strip of phosphocellulose P81 paper and allowed to air dry followed by washing using 1% H2SO4 with constant gentle stirring. A radioactive control was set up then 5 μL of γ-^33P-ATP assay cocktail was spotted on P81 paper, the sample was allowed to air dry for 2 min then the radioactivity count was recorded.
smiles,measurement,setting,value
"COc1cc(OC)c(/C=C2/C(=O)Nc3ccccc32)c(OC)c1 [Compound 4a, (E)-3-(2,4,6-trimethoxybenzylidene)indolin-2-one, reference compound]",Growth Inhibition (%) MCF-7 1 μM Average,MCF-7,43.49 ^c %
same,inhibition at 1 µM,MCF-7,44%
same,inhibition at 10 µM,MCF-7,58.9%
same,IC50,COLO-205,0.2 µM
same,IC50,"A549 cell line; Homo sapiens, A549",28 µM
same,IC50,A549 cell line; listed as 4a (IC261),28.4 µM
same,CK 1 inhibition IC50 (as printed in μM in discussion),CK1,2.39 µM
same,Casein Kinase I Inhibition IC50,CK1,2.39 µg/mL
same,Casein Kinase I Inhibition IC50,CK1; IC261,"2.39 (4a, IC261) μg/mL"
"COc1cc(OC)c(/C=C2/C(=O)Nc3cc(Cl)ccc32)c(OC)c1 [Compound 4b, (E)-6-chloro-3-(2,4,6-trimethoxybenzylidene)indolin-2-one]",Growth Inhibition (%) MCF-7 1 μM Average,MCF-7,45.3%
same,inhibition at 1 µM,MCF-7,46%
same,inhibition at 10 µM,MCF-7,59.1%
same,IC50,COLO-205,0.2 µM
same,IC50,"A549 cell line; Homo sapiens, A549",9.5 µM
same,Casein Kinase I Inhibition IC50,CK1,1.92 µg/mL
